Measured values reported in the supplement of paper PMC4932681.

How the values were obtained:
BT-474 Tam1 [1] = test: drug sensitivity score (DSS) (DSS (dimensionless)); higher = more sensitive; extreme values may be limits of the assay; conditions: 4-OH-tamoxifen in medium 1 µM; 72 h
Protocol: (§1)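 FIMM FO2B library drugs were tested at 5 concentrations (10,000-fold range) for 72 h, with CellTiter-Glo viability normalised to DMSO and benzethonium chloride controls. The Drug Sensitivity Score (DSS) is computed from the fitted logistic dose-response curve (area-based; 0 = inactive). Resistant lines and the 'in 1µM tamoxifen' arms were tested in 1 µM 4-OH-tamoxifen.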

ZR-75-1 [2] = test: as above; conditions: 72 h
Protocol: as §1

T-47D Tam1 [3] = test: as above; conditions: 4-OH-tamoxifen in medium 1 µM; 72 h
Protocol: as §1

BT-474 [4] = test: as above; conditions: 72 h
Protocol: as §1

T-47D [5] = test: as above; conditions: 72 h
Protocol: as §1

MCF-7 [6] = test: as above; conditions: 72 h
Protocol: as §1

BT-474 Tam2 [7] = test: as above; conditions: 4-OH-tamoxifen in medium 1 µM; 72 h
Protocol: as §1

MCF-7 Tam1 [8] = test: as above; conditions: 4-OH-tamoxifen in medium 1 µM; 72 h
Protocol: as §1

ZR-75-1 Tam2 [9] = test: as above; conditions: 4-OH-tamoxifen in medium 1 µM; 72 h
Protocol: as §1

ZR-75-1 Tam1 [10] = test: as above; conditions: 4-OH-tamoxifen in medium 1 µM; 72 h
Protocol: as §1

T-47D Tam2 = test: as above; conditions: 4-OH-tamoxifen in medium 1 µM; 72 h
Protocol: as §1

ZR-75-1 [11] = test: relative IC50 (midpoint of fitted logistic curve, plateau may be below 50% inhibition; CellTiter-Glo viability); higher = less potent; conditions: 72 h
Protocol: (§2)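 FIMM FO2B library drugs were plated at 5 concentrations spanning a 10,000-fold range in 384-well plates. Cells were incubated for 72 h at 37 °C and viability was read by CellTiter-Glo, normalised to DMSO (0% inhibition) and 100 µM benzethonium chloride (100% inhibition). IC50 values come from logistic dose-response fits (Breeze pipeline). Tamoxifen-resistant lines and the 'in 1µM tamoxifen' parental arms were tested in medium with 1 µM 4-OH-tamoxifen.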

BT-474 [12] = test: as above; conditions: 72 h
Protocol: as §2

T-47D [13] = test: as above; conditions: 72 h
Protocol: as §2

MCF-7 [14] = test: as above; conditions: 72 h
Protocol: as §2

MCF-7 Tam1 [15] = test: as above; conditions: 4-OH-tamoxifen in medium 1 µM; 72 h
Protocol: as §2

ZR-75-1 Tam2 [16] = test: as above; conditions: 4-OH-tamoxifen in medium 1 µM; 72 h
Protocol: as §2

ZR-75-1 Tam1 [17] = test: as above; conditions: 4-OH-tamoxifen in medium 1 µM; 72 h
Protocol: as §2

BT-474 Tam1 [18] = test: as above; conditions: 4-OH-tamoxifen in medium 1 µM; 72 h
Protocol: as §2

T-47D Tam1 [19] = test: as above; conditions: 4-OH-tamoxifen in medium 1 µM; 72 h
Protocol: as §2

BT-474 Tam2 [20] = test: as above; conditions: 4-OH-tamoxifen in medium 1 µM; 72 h
Protocol: as §2

Row | relative IC50 (BT-474 [12]; 4-OH-tamoxifen in medium 0 µM) [nM] | relative IC50 (BT-474 [12]; 4-OH-tamoxifen in medium 1 µM) [nM] | relative IC50 (T-47D [13]; 4-OH-tamoxifen in medium 0 µM) [nM] | relative IC50 (T-47D [13]; 4-OH-tamoxifen in medium 1 µM) [nM] | relative IC50 (MCF-7 [14]; 4-OH-tamoxifen in medium 0 µM) [nM] | relative IC50 (MCF-7 Tam1 [15]) [nM] | relative IC50 (T-47D Tam1 [19]) [nM] | relative IC50 (BT-474 Tam2 [20]) [nM] | Compound | drug sensitivity score (BT-474 Tam1 [1]) | drug sensitivity score (ZR-75-1 [2]; 4-OH-tamoxifen in medium 0 µM) | drug sensitivity score (ZR-75-1 [2]; 4-OH-tamoxifen in medium 1 µM) | drug sensitivity score (T-47D Tam1 [3]) | drug sensitivity score (BT-474 [4]; 4-OH-tamoxifen in medium 0 µM) | drug sensitivity score (BT-474 [4]; 4-OH-tamoxifen in medium 1 µM) | drug sensitivity score (T-47D [5]; 4-OH-tamoxifen in medium 0 µM) | drug sensitivity score (T-47D [5]; 4-OH-tamoxifen in medium 1 µM) | drug sensitivity score (MCF-7 [6]; 4-OH-tamoxifen in medium 0 µM) | drug sensitivity score (MCF-7 [6]; 4-OH-tamoxifen in medium 1 µM) | drug sensitivity score (BT-474 Tam2 [7]) | drug sensitivity score (MCF-7 Tam1 [8]) | drug sensitivity score (ZR-75-1 Tam2 [9]) | drug sensitivity score (ZR-75-1 Tam1 [10]) | drug sensitivity score (T-47D Tam2) | relative IC50 (ZR-75-1 [11]; 4-OH-tamoxifen in medium 0 µM) [nM] | relative IC50 (ZR-75-1 [11]; 4-OH-tamoxifen in medium 1 µM) [nM] | relative IC50 (ZR-75-1 Tam2 [16]) [nM] | relative IC50 (ZR-75-1 Tam1 [17]) [nM] | relative IC50 (BT-474 Tam1 [18]) [nM] | relative IC50 (MCF-7 [14]; 4-OH-tamoxifen in medium 1 µM) [nM]
1 | > 10000 | – | > 10000 | – | – | > 10000 | – | 4070 | Cc1cc(C(C)Nc2ccccc2)c2nc(N3CCOCC3)cc(=O)n2c1 (stereo not given) [TGX-221] | 1.23 | 13.2 | 11 | 0.102 | 0 | 0.562 | 0 | 0.16 | 1.97 | 2.11 | 1.6 | 0 | 14.3 | 9.5 | 0.389 | 74.3 | 74.8 | 104 | 193 | – | –
2 | 401 | 223 | 364 | – | – | > 1000 | – | – | O=C1NC(=O)[C@@H](c2cn3c4c(cccc24)CCC3)[C@@H]1c1c[nH]c2ccccc12 [Tivatinib (ARQ 197)] | 0.142 | 0.524 | 0 | 0.827 | 1.2 | 3.08 | 1.88 | 0 | 3.81 | 0.0182 | 0 | 0 | 0 | 0 | 0.839 | – | – | > 1000 | > 1000 | – | –
3 | > 1000 | > 1000 | > 1000 | > 1000 | – | > 1000 | – | – | COc1cc2/c(=N/c3ccc(Br)cc3F)nc[nH]c2cc1OCC1CCN(C)CC1 [Vandetanib  (ZD6474, Zactima)] | 0.381 | 0 | 0 | 0.009 | 0 | 0 | 0 | 0 | 0.65 | 0.193 | 0.605 | 0 | 0 | 0 | 1.6 | > 1000 | > 1000 | > 1000 | > 1000 | – | –
4 | – | – | 361 | – | – | > 1000 | – | > 1000 | CC[C@@H]1C(=O)N(C)c2cnc(Nc3ccc(C(=O)N[C@H]4CC[C@H](N5CCN(CC6CC6)CC5)CC4)cc3OC)nc2N1C(C)C [Volasertib (BI 6727)] | 0.654 | 0 | 0.706 | 2.19 | 1.47 | 7.11 | 1.16 | 2.85 | 2.8 | 7 | 0 | 0 | 0.29 | 1.07 | 2.13 | > 1000 | – | – | – | – | 12.5

The remaining lines, values behind:

Row | Compound | relative IC50 (BT-474 [12]; 4-OH-tamoxifen in medium 0 µM) [nM] | relative IC50 (BT-474 [12]; 4-OH-tamoxifen in medium 1 µM) [nM] | relative IC50 (T-47D [13]; 4-OH-tamoxifen in medium 0 µM) [nM] | relative IC50 (T-47D [13]; 4-OH-tamoxifen in medium 1 µM) [nM] | relative IC50 (MCF-7 [14]; 4-OH-tamoxifen in medium 0 µM) [nM] | relative IC50 (MCF-7 Tam1 [15]) [nM] | relative IC50 (T-47D Tam1 [19]) [nM] | relative IC50 (BT-474 Tam2 [20]) [nM] | drug sensitivity score (BT-474 Tam1 [1]) | drug sensitivity score (ZR-75-1 [2]; 4-OH-tamoxifen in medium 0 µM) | drug sensitivity score (ZR-75-1 [2]; 4-OH-tamoxifen in medium 1 µM) | drug sensitivity score (T-47D Tam1 [3]) | drug sensitivity score (BT-474 [4]; 4-OH-tamoxifen in medium 0 µM) | drug sensitivity score (BT-474 [4]; 4-OH-tamoxifen in medium 1 µM) | drug sensitivity score (T-47D [5]; 4-OH-tamoxifen in medium 0 µM) | drug sensitivity score (T-47D [5]; 4-OH-tamoxifen in medium 1 µM) | drug sensitivity score (MCF-7 [6]; 4-OH-tamoxifen in medium 0 µM) | drug sensitivity score (MCF-7 [6]; 4-OH-tamoxifen in medium 1 µM) | drug sensitivity score (BT-474 Tam2 [7]) | drug sensitivity score (MCF-7 Tam1 [8]) | drug sensitivity score (ZR-75-1 Tam2 [9]) | drug sensitivity score (ZR-75-1 Tam1 [10]) | drug sensitivity score (T-47D Tam2) | relative IC50 (ZR-75-1 [11]; 4-OH-tamoxifen in medium 0 µM) [nM] | relative IC50 (ZR-75-1 [11]; 4-OH-tamoxifen in medium 1 µM) [nM] | relative IC50 (ZR-75-1 Tam2 [16]) [nM] | relative IC50 (ZR-75-1 Tam1 [17]) [nM] | relative IC50 (BT-474 Tam1 [18]) [nM] | relative IC50 (MCF-7 [14]; 4-OH-tamoxifen in medium 1 µM) [nM]
5 | CC(C)(C)NC(=O)[C@H]1CC[C@H]2[C@@H]3CC[C@H]4NC(=O)C=C[C@]4(C)[C@H]3CC[C@]12C [Finasteride] | > 10000 | > 10000 | > 10000 | > 10000 | > 10000 | > 10000 | – | – | 1.69 | 0 | 0 | 0.762 | 0 | 0 | 0 | 0 | 0 | 0.553 | 0.793 | 0 | 0 | 0 | 0.298 | > 10000 | > 10000 | > 10000 | > 10000 | – | –
6 | CC(C)Cn1cnc2c(N)nc3ccccc3c21 [Imiquimod] | > 10000 | – | – | – | > 10000 | > 10000 | – | – | 0 | 0 | 0 | 1.59 | 0 | 0.268 | 0.182 | 0 | 0 | 0.399 | 0 | 0 | 0 | 0 | 0.195 | > 10000 | > 10000 | > 10000 | > 10000 | > 10000 | –
7 | O=C(Nc1ccncc1)C(=O)c1cn(Cc2ccc(Cl)cc2)c2ccccc12 [Indibulin] | – | 474 | > 10000 | – | 32 | > 10000 | – | – | 0 | 0.997 | 0 | 3.37 | 0.543 | 4.58 | 0 | 0.395 | 8.82 | 6.28 | 3.18 | 0 | 0.106 | 0.0575 | 0.194 | – | > 10000 | – | – | > 10000 | 189
8 | Cn1cnc2c(F)c(Nc3ccc(Br)cc3Cl)c(C(=O)NOCCO)cc21 [Selumetinib  (AZD6244)] | > 10000 | – | > 10000 | > 10000 | – | – | 975 | > 10000 | 0.393 | 0 | 0 | 8.55 | 0 | 2.57 | 0 | 0 | 0.0626 | 1.86 | 0 | 0.168 | 0 | 0 | 0.0086 | > 10000 | > 10000 | > 10000 | > 10000 | – | –
9 | Cn1c(=O)c(F)c(Nc2ccc(I)cc2F)c2c(=O)n(C[C@@H](O)CO)cnc21 [TAK-733] | > 1000 | – | > 1000 | > 1000 | – | > 1000 | – | – | 0 | 0 | 0 | 3.14 | 0 | 2.56 | 0 | 0 | 1.63 | 5.38 | 2.4 | 0 | 0 | 0 | 0.474 | > 1000 | > 1000 | > 1000 | > 1000 | – | –
